Where a name gives a salt, the structure may show the parent alone. Read-outs that look alike come from different tables or passages of the source.

In patent US10981932B2, “Macrocyclic indole derivatives” (Bayer Aktiengesellschaft, priority 2016, dated 2021) one finds IC50 and EC50 data, which are given here for 9 molecules.

Data set [1] deals with SUDHL5. As to the kind of experiment: Induction of cytotoxicity (CellTiter-Glo, 5 h), SUDHL5.
Data set [2] has as its system SUDHL5. As to the kind of experiment: Anti-proliferative effect (CellTiter-Glo, 72 h), SUDHL5. In kind it is cell-based. The note with it: SUDHL5 cells, antiproliferation, median, read-out: Antiproli SUDHL5 [M] (median). In outline:
(§1)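 Cells were treated with compounds for 72 h at 37 °C in a humidified incubator, and viability was measured by CellTiter-Glo luminescence. A parallel day 0 plate, read the same way, gave the time zero baseline.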

Data set [3] relates to SUDHL10. The experiment in a line: Induction of cytotoxicity (CellTiter-Glo, 5 h), SUDHL10.
Data set [4] deals with SUDHL5. The experiment in a line: Induction of caspase-3/7 activity (Caspase-Glo 3/7), SUDHL5. In kind it is cell-based. As to conditions: caspase-3/7 induction, SUDHL5 cells, 3 h treatment, median. In outline: (§2)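 DLBCL cells treated with compounds for 3 h at 37 °C, then caspase-3/7 activity read by Caspase-Glo 3/7 luminescence. Medium-only background subtracted; EC50 fitted with C0 fixed at 1 and top set to the reference compound's maximal induction.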

Data set [5] deals with SUDHL10. The experiment in a line: Induction of caspase-3/7 activity (Caspase-Glo 3/7), SUDHL10. In kind it is cell-based. As to conditions: caspase-3/7 induction, SUDHL10 cells, 3 h treatment, median. A digest of the protocol:
as §2

For data set [6], the target named is MCL-1 (Homo sapiens, UniProt Q07820). As to the kind of experiment: Protein-protein interaction assay MCL-1/Noxa BH3 peptide (MCL-1 assay), TR-FRET. In kind it is binding. The note with it: MBP-MCL-1 / Noxa BH3-derived peptide, median. In outline: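 TR-FRET, 665/622 nm emission ratio (excitation 330–350 nm), measured MCL-1/Noxa complex formation. 1 nM MBP-MCL-1, 50 mM Tris/HCl pH 7, 0.1% BGG, 2 mM DTT. Incubation 1 h at 22 °C, then overnight at 4 °C. IC50 by 4-parameter regression, normalized to DMSO (0%) and no-MCL-1 (100%) controls.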

The subject of data set [7] is SUDHL10. As to the kind of experiment: Anti-proliferative effect (CellTiter-Glo, 72 h), SUDHL10. In kind it is cell-based. The note with it: SUDHL10 cells, antiproliferation, median, read-out: Antiproli SUDHL10 [M] (median). In outline: as §1
Data set [8] concerns A2780. As to the kind of experiment: Anti-proliferative effect (CellTiter-Glo, 72 h), A2780. In kind it is cell-based. As to conditions: A2780 cells, median, read-out: IC50 antiproliferation assay A2780 [M] (median). A digest of the protocol: as §1
Setting [9] is: Homo sapiens, SU-DHL-5, 5 h, read-out: Cytotox SUDHL5 [M] (median), SUDHL5 cells, cytotoxicity induction, CellTiter-Glo, 5 h, median.
[10] abbreviates: Homo sapiens, SU-DHL-5, 72 h, 72 h.
[11] abbreviates: Homo sapiens, SU-DHL10, 5 h, read-out: Cytotox SUDHL10 [M] (median), SUDHL10 cells, cytotoxicity induction, CellTiter-Glo, 5 h, median.
The mark [12] stands for this setting: Homo sapiens, SU-DHL10, 72 h, 72 h.
The mark [13] stands for this setting: read-out: Cytotox SUDHL5 [M] (median), SUDHL5 cells, cytotoxicity induction, CellTiter-Glo, 5 h incubation, median.
Setting [14] is: read-out: Cytotox SUDHL10 [M] (median), SUDHL10 cells, cytotoxicity induction, CellTiter-Glo, 5 h incubation, median.

MCL-1, sequence (Q07820 whole entry): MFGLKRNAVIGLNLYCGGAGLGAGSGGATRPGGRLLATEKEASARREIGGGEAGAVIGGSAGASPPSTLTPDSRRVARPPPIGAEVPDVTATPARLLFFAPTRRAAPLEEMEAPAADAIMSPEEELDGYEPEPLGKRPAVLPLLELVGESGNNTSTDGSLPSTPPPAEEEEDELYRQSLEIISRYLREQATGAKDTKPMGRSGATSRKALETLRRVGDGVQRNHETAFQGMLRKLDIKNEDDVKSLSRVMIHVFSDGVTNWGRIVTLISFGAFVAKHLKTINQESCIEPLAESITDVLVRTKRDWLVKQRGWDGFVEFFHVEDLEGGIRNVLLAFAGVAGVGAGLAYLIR

`CC(=O)NCc1nn(C)c2c1-c1cccc3c(CCCOc4cccc5ccccc45)c(C(=O)O)n(c13)CCCCOC2` (single isomer, unassigned; enantiomer 1) [Example 340, 3-[(acetylamino)methyl]-1-methyl-7-[3-(naphthalen-1-yloxy)propyl]-1,10,11,12,13,15-hexahydropyrazolo[4′3′:9,10][1,6]oxazacycloundecino[8,7,6-hi]indole-carboxylic Acid (Enantiomer 1)]: the IC50 is 1.56e-05 M in data set [1] (setting [9]); 4.71e-06 M in data set [2] (setting [10]); above 3.3e-05 M in data set [3] (setting [11]); 0.0219 µM in data set [6]; above 3.3e-05 M in data set [7] (setting [12]); above 3.3e-05 M in data set [8] (Homo sapiens, A2780, 72 h). Besides, the EC50 was 21.1 µM in data set [4] (Homo sapiens, SU-DHL-5, 3 h) and above 33 µM in data set [5] (Homo sapiens, SU-DHL10, 3 h).

`Cn1nc(COC(=O)NCC(F)(F)F)c2c1COCCCCn1c(C(=O)O)c(CCCOc3cccc4ccccc34)c3cccc-2c31` (single isomer, unassigned; enantiomer 1) [Example 343, 1-methyl-7-[3-(naphthalen-1-yloxy)propyl]-3-({[(2,2,2-trifluoroethyl)carbamoyl]oxy}methyl)-1,10,11,12,13,15-hexahydropyrazolo[4′,3′:9,10][1,6]oxazacycloundecino[8,7,6-hi]indole-8-carboxylic Acid (Enantiomer 1)]: the IC50 in data set [1] (setting [9]) was above 3.3e-05 M; in data set [2] (setting [10]) it was 1.92e-06 M; in data set [3] (setting [11]) it was above 3.3e-05 M; in data set [6], 0.325 µM; in data set [7] (setting [12]), 1.11e-06 M; in data set [8] (Homo sapiens, A2780, 72 h), 1.9e-05 M. In addition, the EC50 in data set [4] (Homo sapiens, SU-DHL-5, 3 h) was 29.7 µM; in data set [5] (Homo sapiens, SU-DHL10, 3 h), above 33 µM.

With `Cn1nc(CN2CC3(COC3)C2)c2c1COCCCCn1c(C(=O)O)c(CCCOc3cccc4ccccc34)c3cccc-2c31` (single isomer, unassigned; enantiomer 1) [Example 344, 1-methyl-7-[3-(naphthalen-1-yloxy)propyl]-3-(2-oxa-6-azaspiro[3.3]hept-6-ylmethyl)-1,10,11,12,13,15-hexahydropyrazolo[4′,3′:9,10][1,6]oxazacycloundecino[8,7,6-hi]indole-8-carboxylic acid-N-ethylethanamine Salt (Enantiomer 1)], the IC50 in data set [1] (read-out: Cytotox SUDHL5 [M] (median), SUDHL5 cells, cytotoxicity induction, CellTiter-Glo, 5 h, median) is above 3.3e-05 M; in data set [2] (72 h), 2.08e-05 M; in data set [3] (read-out: Cytotox SUDHL10 [M] (median), SUDHL10 cells, cytotoxicity induction, CellTiter-Glo, 5 h, median) it was above 3.3e-05 M; in data set [6], 0.433 µM; in data set [7] (72 h), 1.44e-05 M; in data set [8], above 3.3e-05 M. The EC50 in data set [4] and in data set [5] was above 33 µM each time.

On to `Cc1nn(C)c2c1-c1cccc3c(CCCOc4cccc5c4CCCC5)c(C(=O)O)n(c13)CCCCOC2` (single isomer, unassigned; enantiomer 2) [Example 008, 1,3-dimethyl-7-[3-(5,6,7,8-tetrahydronaphthalen-1-yloxy)propyl]-1,10,11,12,13,15-hexahydropyrazolo[4′3′:9,10][1,6]oxazacycloundecino[8,7,6-hi]indole-8-carboxylic Acid-N-ethylethanamine Salt (Enantiomer 2)], for which the IC50 is above 3.3e-05 M in data set [1] (setting [13]); 2.59e-05 M in data set [2] (72 h incubation); above 3.3e-05 M in data set [3] (setting [14]); 0.126 µM in data set [6]; 1.55e-05 M in data set [7] (72 h incubation); 2.46e-05 M in data set [8]. Besides, the EC50 in data set [4] and in data set [5] was above 33 µM throughout.

For `Cc1cc(OCCCc2c(C(=O)O)n3c4c(cccc24)-c2c(C)nn(C)c2COCCCC3)cc(C)c1Cl` (single isomer, unassigned; enantiomer 2) [Example 011, 7-[3-(4-chloro-3,5-dimethylphenoxy)propyl]-1,3-dimethyl-1,10,11,12,13,15-hexahydropyrazolo[4′,3′:9,10][1,6]oxazacycloundecino[8,7,6-hi]indole-8-carboxylic Acid-N-ethylethanamine Salt (Enantiomer 2)], the IC50 was above 3.3e-05 M in data set [1] (setting [13]); 2.02e-05 M in data set [2] (72 h incubation); above 3.3e-05 M in data set [3] (setting [14]); 0.162 µM in data set [6]; 1.18e-05 M in data set [7] (72 h incubation); 1.58e-05 M in data set [8]. Moreover, the 50% effective concentration (EC50) in data set [4] and in data set [5] was above 33 µM throughout.

As to `Cc1nn(C)c2c1-c1cccc3c(CCCOc4cccc5cc(F)ccc45)c(C(=O)O)n(c13)CCCCOC2` (single isomer, unassigned; enantiomer 2) [Example 020, 7-{3-[(6-fluoronaphthalen-1-yl)oxy]propyl}-1,3-dimethyl-1,10,11,12,13,15-hexahydropyrazolo[4′,3′:9,10][1,6]oxazacycloundecino[8,7,6-hi]indole-8-carboxylic Acid-N-ethylethanamine Salt (Enantiomer 2)], the IC50 in data set [1] (setting [13]) was 2.31e-05 M; in data set [2] (72 h incubation), 1.72e-05 M; in data set [3] (setting [14]), above 3.3e-05 M; in data set [6], 0.0646 µM; in data set [7] (72 h incubation) it was 6.75e-06 M; in data set [8], 1.37e-05 M. For the same molecule, the EC50 in data set [4] and in data set [5] was above 33 µM throughout.

Take `Cc1ccc2c(CCCOc3cccc4ccccc34)c(C(=O)O)n3c2c1-c1c(C)nn(C)c1COCCCC3` (single isomer, unassigned; enantiomer 2) [Example 029, 1,3,4-trimethyl-7-[3-(naphthalen-1-yloxy)propyl]-1,10,11,12,13,15-hexahydropyrazolo[4′,3′:9,10][1,6]oxazacycloundecino[8,7,6-hi]indole-8-carboxylic acid-N-ethylethanamine Salt (Enantiomer 2)]: the IC50 is above 3.3e-05 M in data set [1] (setting [13]); 1.82e-05 M in data set [2] (72 h incubation); above 3.3e-05 M in data set [3] (setting [14]); 0.22 µM in data set [6]; 1.38e-05 M in data set [7] (72 h incubation); 2.01e-05 M in data set [8]. In addition, the EC50 in data set [4] and in data set [5] was above 33 µM in each case.

`Cc1cc2c(OCCCc3c(C(=O)O)n4c5c(cccc35)-c3c(C)nn(C)c3COCCCC4)cccc2cc1F` (single isomer, unassigned; enantiomer 2) [Example 051, 7-{3-[(6-fluoro-7-methylnaphthalen-1-yl)oxy]propyl}-1,3-dimethyl-1,10,11,12,13,15-hexahydropyrazolo[4′,3′:9,10][1,6]oxazacycloundecino[8,7,6-hi]indole-8-carboxylic acid-N-ethylethanamine Salt (Enantiomer 2)]: the IC50 was found to be 3e-05 M in data set [1] (setting [13]); 8.91e-06 M in data set [2] (72 h incubation); 2.02e-05 M in data set [3] (setting [14]); 0.0737 µM in data set [6]; 4.39e-06 M in data set [7] (72 h incubation); 1.53e-05 M in data set [8]. In addition, the EC50 in data set [4] and in data set [5] was above 33 µM in each case.

As for `Cc1c2c(nn1C)CN(C)CCCCn1c(C(=O)O)c(CCCOc3cccc4ccccc34)c3cccc-2c31` (single isomer, unassigned; enantiomer 2) [Example 069, 2,3,14-trimethyl-7-[3-(naphthalen-1-yloxy)propyl]-10,11,12,13,14,15-hexahydro-2H-pyrazolo[3′,4′:8,9][1,6]diazacycloundecino[10,11,1-hi]indole-8-carboxylic Acid (Enantiomer 2)], the IC50 in data set [1] (setting [13]) is above 3.3e-05 M; in data set [2] (72 h incubation), above 3.3e-05 M; in data set [3] (setting [14]), above 3.3e-05 M; in data set [6], 0.162 µM; in data set [7] (72 h incubation), 2.11e-05 M; in data set [8], above 3.3e-05 M. The EC50 in data set [4] and in data set [5] was above 33 µM in each case.
